Results: the OPERA property sets (Mansouri et al. 2018)

Row | Structure (SMILES) | logP
1 | O=C(C=Cc1cccc([N+](=O)[O-])c1)C(F)(F)F | 2.66
2 | CC(=O)C=Cc1ccc(Br)cc1 | 3.03
3 | CC(=O)C=Cc1ccc(OC(C)=O)cc1 | 1.63
4 | CC(=O)C=Cc1ccc(Cl)cc1 | 2.8
5 | CC(=O)C=Cc1ccccc1F | 2.34
6 | CCOc1ccc(C=CC(C)=O)cc1 | 2.73
7 | CC(=O)C=Cc1cccc(C(F)(F)F)c1 | 3.03
8 | CC(=O)C=Cc1cccc(Br)c1 | 3.02
9 | CC(=O)C=Cc1ccccc1O | 2.19
10 | CC(=O)C=Cc1cccc(Cl)c1 | 2.81
11 | COc1ccc(C=CC(=O)C(F)(F)F)cc1 | 3.33
12 | COc1cccc(C=CC(=O)C(F)(F)F)c1 | 3.05
13 | COc1ccccc1C=CC(=O)C(F)(F)F | 3.39
14 | CC(=O)C=Cc1cccc(C)c1 | 2.68
15 | CC(=O)C=Cc1ccc([N+](=O)[O-])cc1 | 1.9
16 | CC(=O)C=Cc1ccccc1C | 2.6
17 | COc1ccccc1C=CC(C)=O | 2.42
18 | CC(=O)C=Cc1ccc(C(F)(F)F)cc1 | 3.13
19 | CC(=O)C=Cc1cccc([N+](=O)[O-])c1 | 1.88

Results, then the compound that gave them:

Row | logP | Structure (SMILES)
20 | 2.25 | COc1ccc(C=CC(C)=O)cc1
21 | 3.26 | CCc1ccc(C=CC(C)=O)cc1
22 | 2.65 | CC(=O)C=Cc1ccc(C)cc1
23 | 2.45 | N#Cc1cccc(C=CC(=O)C(F)(F)F)c1
24 | 1.86 | CC(=O)C=Cc1ccc(O)cc1
25 | 3.14 | CC(=O)C=Cc1ccccc1C(F)(F)F
26 | 2.27 | COc1cccc(C=CC(C)=O)c1
27 | 2.25 | CC(=O)C=Cc1cccc(F)c1
28 | 2.85 | CC(=O)C=Cc1ccccc1Cl
29 | 2.66 | CC(=O)C=Cc1ccc(N(C)C)cc1
30 | 3.5 | O=C(C=Cc1ccccc1Cl)C(F)(F)F
31 | 2.22 | CC(=O)C=Cc1ccc(F)cc1
32 | 1.59 | CC(=O)C=Cc1cccc(C#N)c1
33 | 2.42 | N#Cc1ccc(C=CC(=O)C(F)(F)F)cc1
34 | 3.01 | O=C(C=Cc1ccccc1)C(F)(F)F
35 | 3.63 | O=C(C=Cc1ccc(Cl)cc1)C(F)(F)F
36 | 3.58 | O=C(C=Cc1cccc(Cl)c1)C(F)(F)F
37 | 1.64 | CC(=O)C=Cc1ccc(C#N)cc1
